Reference: US8507660B2 (priority 2009, dated 2013)

Assay: Storage stability of sialyl phosphate donors
Assay type: physicochemical
Details: −20° C., several months
Description: The reaction was complete in 5 h to give a mixture of α- and β-anomers. The sialyl α-phosphate 2a and sialyl β-phosphate 2b can be easily separated by silica gel column chromatography and are both stable at −20° C. for several months.

## CCCCOP(=O)(OCCCC)OC1(C(=O)OC)CC(OC(C)=O)[C@@H](NC(C)=O)C([C@H](OC(C)=O)[C@@H](COC(C)=O)OC(C)=O)O1 (stereo partly shown) [2a]
  stability on storage: stable
